Measurements from US20240148821A1, “PHARMACEUTICAL USE OF CYCLIC PEPTIDE COMPOUND” (CHUGAI SEIYAKU KABUSHIKI KAISHA, priority 2021, published 2024).
Numbered stars: 1 amine (or outer) side, 2 acyl side, 3 side chain; on linkers, the order of the positions; unused ones are H or OH. Bridge positions count the residues as written; N and C are the ends. Square brackets hold non-standard residues; d marks the D form. Peptide text beside a SMILES is read from it. * marks the point of attachment. hPhe(3,5-F2-4-CF3) = N[C@@H](CCc1cc(F)c(C(F)(F)F)c(F)c1)C(=O)O; hPhe(3-Cl-4-CF3) = N[C@@H](CCc1ccc(C(F)(F)F)c(Cl)c1)C(=O)O; hPhe(3-F,4-CF3) = N[C@@H](CCc1ccc(C(F)(F)F)c(F)c1)C(=O)O; X15 = O=C([C@H](CCc1cc(Cl)c(Cl)c(Cl)c1)N[*:1])[*:2]; hPhe(4-CF3) = N[C@@H](CCc1ccc(C(F)(F)F)cc1)C(=O)O; NEtPhe(4-Me) = CCN[C@@H](Cc1ccc(C)cc1)C(=O)O; NMePhe(4-Cl) = CN[C@@H](Cc1ccc(Cl)cc1)C(=O)O; NMePhe(4-Me) = CN[C@@H](Cc1ccc(C)cc1)C(=O)O; NMedβ3hAla = C[C@H](CC(=O)[*:2])N(C)[*:1]; NMeGly(cPent) = CN[C@H](C(=O)O)C1CCCC1; NMeAla(cPr) = CN[C@@H](CC1CC1)C(=O)O; NMeCha = CN[C@@H](CC1CCCCC1)C(=O)O; Hyp = O=C(O)[C@@H]1C[C@@H](O)CN1; NMeF = CN[C@@H](Cc1ccccc1)C(=O)O; NMeI = CC[C@H](C)[C@H](NC)C(=O)O; Gly(cPr) = N[C@H](C(=O)O)C1CC1; NMeD = CN[C@@H](CC(=O)O)C(=O)O; NMeL = CN[C@@H](CC(C)C)C(=O)O; Ahp(2) = CCCCC[C@H](N)C(=O)O; Ala(CN) = N#CC[C@H](N)C(=O)O; NMeV = CN[C@H](C(=O)O)C(C)C; d(β3hA) = C[C@@H](N)CC(=O)O; NMeS = CN[C@@H](CO)C(=O)O; Morpholide = C1CN(*)CCO1; NMeA = CN[C@@H](C)C(=O)O; NMeAib = CNC(C)(C)C(=O)O; Piperidide = C1CCN(*)CC1; Pyrrolidide = C1CCN(*)C1; dNMeA = CN[C@H](C)C(=O)O; Ac5c = NC1(C(=O)O)CCCC1; Aze = O=C(O)[C@@H]1CCN1; Cyclopropyl = C1CC1*; Sar = CNCC(=O)O; Propyl = CCC*

Columns and labels:
[1] = target: protein-protein interaction between Kras and SOS1 (biotin-tagged human Kras loaded with GDP, His-tagged human SOS1) (Homo sapiens (Human), UniProt P01116, G12D); test: Protein-protein interaction inhibition between Kras and SOS1 (KrasG12D-SOS PPI) using AlphaScreen; type: biochemical; conditions: AlphaScreen; biotin-tagged human Kras loaded with GDP, His-tagged human SOS1; read-out: KRAS G12D-SOS PPI IC50;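 further: kras produced in E. coli, Ni-coupled donor beads and streptavidin acceptor beads, excitation 680 nm with emission detected at 520–620 nm via singlet oxygen transfer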
[2] = system: Human pancreatic cancer cell line AsPC-1 (G12D mutation Kras); test: AsPC-1 cell growth inhibition (AsPC-1 CGI); type: cell-based; conditions: read-out: AsPC-1 cell growth inhibition, 50% growth inhibitory concentration (IC50 value); 96 hours, CellTiter-Glo, values classified in ranges
Experimental: Test compounds were serially dilated with dimethyl sulfoxide, and 200 nL was then dispensed to a U-bottom 96-well plate using Labcyte Echo. […] The cell suspension was dispensed to a. plate containing a test compound at 100 μL per well and incubated at 37° C. in a 5% carbon dioxide gas incubator. 96 hours later, 80 μL of CellTiter-Glo (Promega) was added to each well and fluorescence was measured.

| Structure (SMILES) | IC50 [1] | IC50 [2] |
| --- | --- | --- |
| CC[C@H](C)[C@@H]1NC(=O)[C@H](C)N(C)C(=O)C[C@@H](C(=O)N2CCCCC2)N(C)C(=O)[C@H](C(C)C)N(C)C(=O)C2(CCCC2)NC(=O)[C@@H]2CCCN2C(=O)[C@H](CCc2ccc(C(F)(F)F)c(Cl)c2)NC(=O)[C@@H](C)N(C)C(=O)[C@H](CC2CCCCC2)N(C)C(=O)[C@@H]2CCN2C(=O)CN(C)C1=O [Compound 115] ([NMeA]I[Sar][Aze][NMeCha][dNMeA][hPhe(3-Cl-4-CF3)]P[Ac5c][NMeV][NMeD]-Piperidide; lactam N-11) | 6 nM | > 500 nM |
| CCCCC[C@@H]1NC(=O)[C@H](CC(C)C)N(C)C(=O)C[C@@H](C(=O)N2CCCCC2)N(C)C(=O)[C@H](C(C)C)N(C)C(=O)C2(CCCC2)NC(=O)[C@@H]2CCCN2C(=O)[C@H](CCc2ccc(C(F)(F)F)c(Cl)c2)NC(=O)CN(C)C(=O)[C@H](CC2CCCCC2)N(C)C(=O)[C@@H]2CCN2C(=O)[C@H](C)N(C)C1=O [Compound 1826] ([NMeL][Ahp(2)][NMeA][Aze][NMeCha][Sar][hPhe(3-Cl-4-CF3)]P[Ac5c][NMeV][NMeD]-Piperidide; lactam N-11) | 99 nM | > 500 nM |
| CC[C@H](C)[C@@H]1NC(=O)[C@H](CC(C)C)N(C)C(=O)C[C@@H](C(=O)N2CCOCC2)N(C)C(=O)[C@H](C2CCCC2)N(C)C(=O)C2(CCCC2)NC(=O)[C@@H]2CCCN2C(=O)[C@H](CCc2cc(F)c(C(F)(F)F)c(F)c2)NC(=O)CN(C)C(=O)[C@H](C2CCCC2)N(C)C(=O)[C@@H]2CCN2C(=O)[C@H](C)N(C)C1=O [Compound 1336] ([NMeL]I[NMeA][Aze][NMeGly(cPent)][Sar][hPhe(3,5-F2-4-CF3)]P[Ac5c][NMeGly(cPent)][NMeD]-Morpholide; lactam N-11) | 0.66 nM | ≤ 20 nM |
| CC(C)C[C@H]1C(=O)N[C@@H](C2CC2)C(=O)N(C)[C@@H](C)C(=O)N2CC[C@H]2C(=O)N(C)[C@@H](CC2CCCCC2)C(=O)N(C)CC(=O)N[C@@H](CCc2ccc(C(F)(F)F)c(Cl)c2)C(=O)N2CCC[C@H]2C(=O)NC2(CCCC2)C(=O)N(C)[C@@H](C(C)C)C(=O)N(C)[C@H](C(=O)N2CCCCC2)CC(=O)N1C [Compound 280] ([NMeL][Gly(cPr)][NMeA][Aze][NMeCha][Sar][hPhe(3-Cl-4-CF3)]P[Ac5c][NMeV][NMeD]-Piperidide; lactam N-11) | 24 nM | > 500 nM |
| CC[C@H](C)[C@@H]1NC(=O)[C@H](CC(C)C)N(C)C(=O)C[C@@H](C(=O)N2CCCCC2)N(C)C(=O)[C@H]([C@@H](C)CC)N(C)C(=O)C2(CCCC2)NC(=O)[C@@H]2CCCN2C(=O)[C@H](CCc2ccc(C(F)(F)F)c(Cl)c2)NC(=O)CN(C)C(=O)[C@H](Cc2ccc(Cl)cc2)N(C)C(=O)[C@@H]2CCN2C(=O)[C@H](C)N(C)C1=O [Compound 253] ([NMeL]I[NMeA][Aze][NMePhe(4-Cl)][Sar][hPhe(3-Cl-4-CF3)]P[Ac5c][NMeI][NMeD]-Piperidide; lactam N-11) | 0.99 nM | ≤ 20 nM |
| CC(C)C[C@H]1C(=O)N[C@@H](CC#N)C(=O)N(C)[C@@H](C)C(=O)N2CC[C@H]2C(=O)N(C)[C@@H](CC2CCCCC2)C(=O)N(C)CC(=O)N[C@@H](CCc2ccc(C(F)(F)F)c(Cl)c2)C(=O)N2CCC[C@H]2C(=O)NC2(CCCC2)C(=O)N(C)[C@@H](C(C)C)C(=O)N(C)[C@H](C(=O)N2CCCCC2)CC(=O)N1C [Compound 278] ([NMeL][Ala(CN)][NMeA][Aze][NMeCha][Sar][hPhe(3-Cl-4-CF3)]P[Ac5c][NMeV][NMeD]-Piperidide; lactam N-11) | 25 nM | > 500 nM |
| CCCOC[C@H]1C(=O)N(C)CC(=O)N[C@@H](CCc2ccc(C(F)(F)F)c(Cl)c2)C(=O)N2CCC[C@H]2C(=O)NC2(CCCC2)C(=O)N(C)[C@@H]([C@@H](C)CC)C(=O)N(C)[C@H](C(=O)N2CCCCC2)CC(=O)N(C)[C@@H](CC(C)C)C(=O)N[C@@H]([C@@H](C)CC)C(=O)N(C)[C@@H](C)C(=O)N2CC[C@H]2C(=O)N1C [Compound 690] ([NMeL]I[NMeA][Aze][NMeS](Propyl)[Sar][hPhe(3-Cl-4-CF3)]P[Ac5c][NMeI][NMeD]-Piperidide; lactam N-11) | 1.8 nM | ≤ 20 nM |
| CC[C@H](C)[C@@H]1NC(=O)[C@H](CC(C)C)N(C)C(=O)C[C@@H](C(=O)N2CCCC2)N(C)C(=O)[C@H]([C@@H](C)CC)N(C)C(=O)C2(CCCC2)NC(=O)[C@@H]2CCCN2C(=O)[C@H](CCc2ccc(C(F)(F)F)c(Cl)c2)NC(=O)CN(C)C(=O)[C@H](Cc2ccc(C)cc2)N(CC)C(=O)[C@@H]2CCN2C(=O)[C@H](C)N(C)C1=O [Compound 1325] ([NMeL]I[NMeA][Aze][NEtPhe(4-Me)][Sar][hPhe(3-Cl-4-CF3)]P[Ac5c][NMeI][NMeD]-Pyrrolidide; lactam N-11) | 0.96 nM | ≤ 20 nM |
| CC[C@H](C)[C@@H]1NC(=O)[C@H](CC(C)C)N(C)C(=O)C[C@@H](C(=O)N2CCCCC2)N(C)C(=O)[C@H](C(C)C)N(C)C(=O)C2(CCCC2)NC(=O)[C@@H]2CCCN2C(=O)[C@H](CCc2ccc(C(F)(F)F)c(Cl)c2)NC(=O)CN(C)C(=O)[C@H](CC2CC2)N(C)C(=O)[C@@H]2CCN2C(=O)[C@H](C)N(C)C1=O [Compound 195] ([NMeL]I[NMeA][Aze][NMeAla(cPr)][Sar][hPhe(3-Cl-4-CF3)]P[Ac5c][NMeV][NMeD]-Piperidide; lactam N-11) | 9.5 nM | > 500 nM |
| CC[C@H](C)[C@@H]1NC(=O)[C@H](CC(C)C)N(C)C(=O)C[C@@H](C(=O)N2CCCC2)N(C)C(=O)[C@H](C2CCCC2)N(C)C(=O)C2(CCCC2)NC(=O)[C@@H]2CCCN2C(=O)[C@H](CCc2ccc(C(F)(F)F)c(F)c2)NC(=O)CN(C)C(=O)[C@H](Cc2ccc(C)cc2)N(C)C(=O)[C@@H]2CCN2C(=O)[C@H](C)N(C)C1=O [Compound 20] ([NMeL]I[NMeA][Aze][NMePhe(4-Me)][Sar][hPhe(3-F,4-CF3)]P[Ac5c][NMeGly(cPent)][NMeD]-Pyrrolidide; lactam N-11) | 0.76 nM | ≤ 20 nM |
| CC[C@H](C)[C@@H]1NC(=O)[C@H](CC(C)C)N(C)C(=O)C[C@@H](C)N(C)C(=O)[C@H](CC(C)C)NC(=O)C(C)(C)N(C)C(=O)[C@H]([C@@H](C)CC)NC(=O)[C@H](CCc2ccc(C(F)(F)F)c(F)c2)NC(=O)CN(C)C(=O)[C@H](Cc2ccc(Cl)cc2)N(C)C(=O)CN(C)C(=O)CN(C)C1=O [Compound 332] (cyclo(I[NMeAib]L[NMedβ3hAla][NMeL]I[Sar][Sar][NMePhe(4-Cl)][Sar][hPhe(3-F,4-CF3)])) | 210 nM | > 500 nM |
| CCO[C@@H]1C[C@H]2C(=O)NC3(CCCC3)C(=O)N(C)[C@@H](C3CCCC3)C(=O)N(C)[C@H](C)CC(=O)N(C)[C@@H](CC(C)C)C(=O)N[C@@H]([C@@H](C)CC)C(=O)N(C)[C@@H](C)C(=O)N3CC[C@H]3C(=O)N(CC)[C@@H](Cc3ccc(C)cc3)C(=O)N(C)CC(=O)N[C@@H](CCc3ccc(C(F)(F)F)c(Cl)c3)C(=O)N2C1 [Compound 775] (cyclo([Ac5c][NMeGly(cPent)][NMedβ3hAla][NMeL]I[NMeA][Aze][NEtPhe(4-Me)][Sar][hPhe(3-Cl-4-CF3)][Hyp](Et))) | 4.6 nM | ≤ 20 nM |
| CC[C@H](C)[C@@H]1NC(=O)[C@H](CC(C)C)N(C)C(=O)C[C@@H](C)NC(=O)[C@H](C(C)C)N(C)C(=O)[C@H](Cc2ccccc2)N(C)C(=O)[C@H](CC(C)C)N(C)C(=O)[C@H](CCc2ccc(C(F)(F)F)cc2)NC(=O)CN(C)C(=O)[C@H](Cc2ccc(Cl)cc2)N(C)C(=O)CN(C)C(=O)CN(C)C1=O [Compound 124] (cyclo(I[Sar][Sar][NMePhe(4-Cl)][Sar][hPhe(4-CF3)][NMeL][NMeF][NMeV][d(β3hA)][NMeL])) | 140 nM | > 500 nM |
| CC[C@H](C)[C@@H]1NC(=O)[C@H](CC(C)C)N(C)C(=O)C[C@@H](C(=O)N2CCCCC2)N(C)C(=O)[C@H](COC2CC2)N(C)C(=O)C2(CCCC2)NC(=O)[C@@H]2CCCN2C(=O)[C@H](CCc2ccc(C(F)(F)F)c(Cl)c2)NC(=O)CN(C)C(=O)[C@H](CC2CCCCC2)N(C)C(=O)[C@@H]2CCN2C(=O)[C@H](C)N(C)C1=O [Compound 1690] ([NMeL]I[NMeA][Aze][NMeCha][Sar][hPhe(3-Cl-4-CF3)]P[Ac5c][NMeS](Cyclopropyl)[NMeD]-Piperidide; lactam N-11) | 97 nM | > 500 nM |
| CCCOC[C@H]1C(=O)N(C)CC(=O)N[C@@H](CCc2ccc(C(F)(F)F)c(Cl)c2)C(=O)N2CCC[C@H]2C(=O)NC2(CCCC2)C(=O)N(C)[C@@H](C2CCCC2)C(=O)N(C)[C@H](C(=O)N2CCCC2)CC(=O)N(C)[C@@H](CC(C)C)C(=O)N[C@@H]([C@@H](C)CC)C(=O)N(C)[C@@H](C)C(=O)N2CC[C@H]2C(=O)N1C [Compound 836] ([NMeL]I[NMeA][Aze][NMeS](Propyl)[Sar][hPhe(3-Cl-4-CF3)]P[Ac5c][NMeGly(cPent)][NMeD]-Pyrrolidide; lactam N-11) | 0.66 nM | ≤ 20 nM |
| CC[C@H](C)[C@@H]1NC(=O)[C@H](C)N(C)C(=O)C[C@@H](C(=O)N2CCCCC2)N(C)C(=O)[C@H](C(C)C)N(C)C(=O)C2(CCCC2)NC(=O)[C@@H]2CCCN2C(=O)[C@H](CCc2cc(Cl)c(Cl)c(Cl)c2)NC(=O)CN(C)C(=O)[C@H](CC2CCCCC2)N(C)C(=O)CN(C)C(=O)CN(C)C1=O [Compound 2068, (3S,9S,18S,21S,25S,28S,34S)-9-(cyclohexylmethyl)-28-isopropyl-7,10,13,16,21,22,26,29-octamethyl-18-[(1S)-1-methylpropyl]-25-(piperidine-1-carbonyl)-3-[2-(3,4,5-trichlorophenyl)ethyl]spiro[1,4,7,10,13,16,19,22,26,29,32-undecazabicyclo[32.3.0]heptatriacontane-31,1′-cylopentane]-2,5,8,11,14,17,20,23,27,30,33-undecone] ([NMeA]I[Sar][Sar][NMeCha][Sar][X15]P[Ac5c][NMeV][NMeD]-Piperidide; lactam N-11) | 1.7 nM | > 500 nM |
